Test results reported in patent publication US8952024B2, “Herbicidal pyrimidone derivatives” (E I du Pont de Nemours and Company, priority 2009, dated 2015).

Tests used:
Assay type in all cases: in vivo
[1] = tested on: barnyardgrass (Echinochloa crus-galli); assay: Test A pre-/postemergence plant response
Procedure, shortened: (§1)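 Each species was treated preemergence via directed soil spray and postemergence at the one- to two-leaf stage, with compounds formulated in a non-phytotoxic solvent plus surfactant. Visual injury relative to untreated controls was rated after about ten days on a 0–100 scale.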

[2] = tested on: corn (Zea mays); assay: Test A pre-/postemergence plant response
Procedure, shortened: as §1

[3] = tested on: giant foxtail (Setaria faberii); assay: Test A pre-/postemergence plant response
Procedure, shortened: as §1

[4] = tested on: large crabgrass (Digitaria sanguinalis); assay: Test A pre-/postemergence plant response
Procedure, shortened: as §1

[5] = tested on: morningglory (Ipomoea spp.); assay: Test A pre-/postemergence plant response
Procedure, shortened: as §1

[6] = tested on: pigweed (Amaranthus retroflexus); assay: Test A pre-/postemergence plant response
Procedure, shortened: as §1

[7] = tested on: velvetleaf (Abutilon theophrasti); assay: Test A pre-/postemergence plant response
Procedure, shortened: as §1

[8] = tested on: wheat (Triticum aestivum); assay: Test A pre-/postemergence plant response
Procedure, shortened: as §1

[9] = tested on: winter barley (Hordeum vulgare); assay: Test B postemergence plant response; conditions: Postemergence; for Barley plant response rating: 250 g ai/ha, scale 0 to 100
Procedure, shortened: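 Plants grown in peat/vermiculite medium were sprayed postemergence at 2–18 cm height (1- to 4-leaf stage). After 13–15 days in the greenhouse, response was rated visually against untreated controls on a 0–100 scale (0 no effect, 100 complete control).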

[10] = tested on: barnyardgrass (Echinochloa crus-galli); assay: Test B flooded paddy test; conditions: for Plant response rating, Flood, Barnyardgrass: 250 g ai/ha, flooded paddy test, visual rating on 0 to 100 scale (0 no effect, 100 complete control) after 13 to 15 days; for Plant response rating, Barnyardgrass: Flood (flooded paddy test), 62 g ai/ha, 13 to 15 days
Procedure, shortened: (§2)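 Rice, umbrella sedge, ducksalad and barnyardgrass were grown to the 2-leaf stage, flooded to 3 cm, and compound was applied directly to the paddy water, with that depth kept throughout. After 13 to 15 days in the greenhouse, plants were visually rated against controls on a 0 (no effect) to 100 (complete control) scale.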

[11] = tested on: ducksalad (Heteranthera limosa); assay: Test B flooded paddy test; conditions: for Plant response rating, Flood, Ducksalad: 250 g ai/ha, flooded paddy test, visual rating on 0 to 100 scale (0 no effect, 100 complete control) after 13 to 15 days; for Plant response rating, Ducksalad: Flood (flooded paddy test), 62 g ai/ha, 13 to 15 days
Procedure, shortened: as §2

[12] = tested on: rice (Oryza sativa); assay: Test B flooded paddy test; conditions: for Plant response rating, Flood, Rice: 250 g ai/ha, flooded paddy test, visual rating on 0 to 100 scale (0 no effect, 100 complete control) after 13 to 15 days; for Plant response rating, Rice: Flood (flooded paddy test), 62 g ai/ha, 13 to 15 days
Procedure, shortened: as §2

[13] = tested on: umbrella sedge (Cyperus difformis); assay: Test B flooded paddy test; conditions: for Plant response rating, Flood, Sedge, Umbrella: 250 g ai/ha, flooded paddy test, visual rating on 0 to 100 scale (0 no effect, 100 complete control) after 13 to 15 days; for Plant response rating, Sedge, Umbrella: Flood (flooded paddy test), 62 g ai/ha, 13 to 15 days
Procedure, shortened: as §2

[14] = Postemergence, 125 g ai/ha, visual injury, 0 to 100 scale (0 no effect, 100 complete control), approx. ten days
[15] = Postemergence, 500 g ai/ha, 0 to 100 scale, 0 = no effect, 100 = complete control, approx. ten days
[16] = Preemergence, 125 g ai/ha, 0 to 100 scale, 0 = no effect, 100 = complete control
[17] = Preemergence, 500 g ai/ha, visual injury, 0 to 100 scale (0 no effect, 100 complete control), approx. ten days
[18] = 31 g ai/ha, scale 0 to 100 (0 no effect, 100 complete control)
[19] = 62 g ai/ha, scale 0 (no effect) to 100 (complete control), 13 to 15 days
[20] = scale 0 to 100, 0 is no effect, 100 is complete control
[21] = scale of 0 to 100 where 0 is no effect and 100 is complete control

O=C1CCCC(O)=C1C(=O)c1cnc(-c2ccccc2)n(-c2ccccc2F)c1=O [Compound 26]
Barnyardgrass plant response rating [1, 14]: 30 | Plant response rating, Barnyardgrass [1, 15]: 80 | Plant response rating, Barnyardgrass [1, 16]: 0 | Plant response rating, Barnyardgrass [1, 17]: 60 | Corn plant response rating [2, 14]: 0 | Plant response rating, Corn [2, 15]: 20 | Plant response rating, Corn [2, 16]: 0 | Plant response rating, Corn [2, 17]: 0 | Foxtail, Giant plant response rating [3, 14]: 50 | Plant response rating, Foxtail, Giant [3, 15]: 90 | Plant response rating, Foxtail, Giant [3, 16]: 30 | Plant response rating, Foxtail, Giant [3, 17]: 70 | Crabgrass, Large plant response rating [4, 14]: 70 | Plant response rating, Crabgrass, Large [4, 15]: 90 | Plant response rating, Crabgrass, Large [4, 16]: 20 | Plant response rating, Crabgrass, Large [4, 17]: 90 | Morningglory plant response rating [5, 14]: 50 | Plant response rating, Morningglory [5, 15]: 80 | Plant response rating, Morningglory [5, 16]: 10 | Plant response rating, Morningglory [5, 17]: 70 | Pigweed plant response rating [6, 14]: 90 | Plant response rating, Pigweed [6, 15]: 100 | Plant response rating, Pigweed [6, 16]: 60 | Plant response rating, Pigweed [6, 17]: 100 | Velvetleaf plant response rating [7, 14]: 100 | Plant response rating, Velvetleaf [7, 15]: 100 | Plant response rating, Velvetleaf [7, 16]: 20 | Plant response rating, Velvetleaf [7, 17]: 100 | Wheat plant response rating [8, 14]: 0 | Plant response rating, Wheat [8, 15]: 0 | Plant response rating, Wheat [8, 16]: 0 | Plant response rating, Wheat [8, 17]: 0 | Plant response rating, Barley [9, 18]: 0 | Plant response rating, Barley [9, 19]: 0 | Plant response rating, Barley ([9]; 125 g ai/ha, scale 0 to 100 (0 no effect, 100 complete control), 13 to 15 days): 0 | Barley plant response rating [9]: 0 | Plant response rating, Flood, Barnyardgrass [10]: 0 | Plant response rating, Barnyardgrass [10, 20]: 0 | Plant response rating, Flood, Ducksalad [11]: 85 | Plant response rating, Ducksalad [11, 20]: 75 | Plant response rating, Flood, Rice [12]: 0 | Plant response rating, Rice [12, 20]: 0 | Plant response rating, Flood, Sedge, Umbrella [13]: 85 | Plant response rating, Sedge, Umbrella [13, 20]: 75

Cc1cccc(Cl)c1-n1c(-c2ccccc2)ncc(C(=O)C2=C(O)CCCC2=O)c1=O [Compound 46]
Barnyardgrass plant response rating [1, 14]: 80 | Plant response rating, Barnyardgrass [1, 15]: 90 | Plant response rating, Barnyardgrass [1, 16]: 0 | Plant response rating, Barnyardgrass [1, 17]: 50 | Corn plant response rating [2, 14]: 0 | Plant response rating, Corn [2, 15]: 20 | Plant response rating, Corn [2, 16]: 0 | Plant response rating, Corn [2, 17]: 0 | Foxtail, Giant plant response rating [3, 14]: 60 | Plant response rating, Foxtail, Giant [3, 15]: 90 | Plant response rating, Foxtail, Giant [3, 16]: 0 | Plant response rating, Foxtail, Giant [3, 17]: 60 | Crabgrass, Large plant response rating [4, 14]: 70 | Plant response rating, Crabgrass, Large [4, 15]: 90 | Plant response rating, Crabgrass, Large [4, 16]: 30 | Plant response rating, Crabgrass, Large [4, 17]: 80 | Morningglory plant response rating [5, 14]: 60 | Plant response rating, Morningglory [5, 15]: 70 | Plant response rating, Morningglory [5, 16]: 10 | Plant response rating, Morningglory [5, 17]: 70 | Pigweed plant response rating [6, 14]: 80 | Plant response rating, Pigweed [6, 15]: 100 | Plant response rating, Pigweed [6, 16]: 60 | Plant response rating, Pigweed [6, 17]: 90 | Velvetleaf plant response rating [7, 14]: 100 | Plant response rating, Velvetleaf [7, 15]: 100 | Plant response rating, Velvetleaf [7, 16]: 40 | Plant response rating, Velvetleaf [7, 17]: 70 | Wheat plant response rating [8, 14]: 0 | Plant response rating, Wheat [8, 15]: 0 | Plant response rating, Wheat [8, 16]: 0 | Plant response rating, Wheat [8, 17]: 20 | Plant response rating, Barley [9, 18]: 0 | Plant response rating, Barley [9, 19]: 0 | Plant response rating, Barley ([9]; 125 g ai/ha, visual rating after 13 to 15 days, scale 0 (no effect) to 100 (complete control)): 0 | Barley plant response rating [9]: 0 | Plant response rating, Flood, Barnyardgrass [10]: 0 | Plant response rating, Barnyardgrass [10, 21]: 0 | Plant response rating, Flood, Ducksalad [11]: 20 | Plant response rating, Ducksalad [11, 21]: 20 | Plant response rating, Flood, Rice [12]: 10 | Plant response rating, Rice [12, 21]: 10 | Plant response rating, Flood, Sedge, Umbrella [13]: 65 | Plant response rating, Sedge, Umbrella [13, 21]: 45
